Measurements: patent publication US20110251128A1, “THYMOSIN Beta4 PEPTIDES PROMOTE TISSUE REGENERATION” (The Board of Regents of the University of Texas System, priority 2010, published 2011)
Entries after “also recorded” stand apart in the source; their conditions may differ. Where two headings read alike, the source gives them in different places. Residues, ends and D or L forms follow the SMILES beside them. No end group written: not given here.

What was measured:
[1] = system: C57BL/6J male mice after coronary ligation; assay: Myocardial infarction by LAD coronary ligation in adult mice: echocardiography, scar volume, myocyte size; assay type: in vivo, mouse; settings: for side effects: mouse model; for post-ischemic cardiac function, in words: adult mice after coronary ligation
From the text: (§1) Animals and Surgical procedures. Mice: Myocardial infarctions were produced in seventy C57BL/6J male mice at 16 weeks of age (25-30 g) by ligation of the left anterior descending (LAD) coronary artery as described (Garner et al., 2003). All animal protocols were reviewed and approved by the University of Texas Southwestern Medical School Institutional Animal Care Advisory Committee and were in compliance with the rules governing animal use as published by the NIH. Mice were sedated in an isoflurane chamber (5%) for 60 seconds until self-designed coaxial mask could be safely applied. The mask supplied continuous isoflurane (2.0%) and oxygen (98.0%) under positive pressure from a Harvard small animal respirator throughout the procedures. Immediately after ligation mice were injected with 200 ng of peptide in […] or […] PBS in collagen intracardially in the infarction border, and with […] PBS intraperitoneally as described (Bock-Marquette et al., 2004). Intraperitoneal injections were repeated every three days after ligation. Effective doses of the peptides were calculated based on optimal in vitro cell migration effect and on biodistribution calculations of full length TB4 (Mora et al., 1997). The inventors administered buprenorphine (0.05 mg/kg) for post-operative pain control. Hearts were removed 1, 14 and 21 days after ligation and processed for further investigations.
Analysis of cardiac function by echocardiography: Echocardiograms to assess systolic function were performed using M-mode and 2-dimensional measurements as described previously (Garner et al., 2003). The measurements represented the average of six selected cardiac cycles from at least two separate scans performed in random-blind fashion with papillary muscles used as a point of reference for consistency in level of scan. End diastole was defined as the maximal left ventricle (LV) diastolic dimension and end systole was defined as the peak of posterior wall motion. Single outliers in each group were omitted for statistical analysis. Fractional shortening (FS), a surrogate of systolic function, was calculated from LV dimensions as follows: FS=[(EDD−ESD)/EDD]×100%. Ejection fraction (EF) was calculated as follows: EF=[(edd^3−esd^3)/edd^3]×100%. EDD, end diastolic dimension; ESD, end systolic dimension.
Calculation of scar volume and myocyte size: Scar volume was calculated after Masson's trichrome staining in six sections through the heart of each mouse using Openlab 3.03 software (Improvision) similar to previously described (Bock-Marquette et al., 2004). Percent area of collagen deposition was measured on each section in blinded fashion and averaged for each mouse.

adult infarcted pigs = assay: Ischemia reperfusion (acute myocardial infarction) in pigs with retroinfusion of peptides; assay type: in vivo, pig; settings: pig model
Experimental: Pigs: German pigs were purchased from the animal research department of the Ludwig-Maximilians-University (Oberschleissheim, Germany). Animal care and all experimental procedures were performed in accordance to the German and NIH animal legislation guidelines and were approved by the Bavarian Animal Care and Use Committee (AZ 55.2-1-54-2531-26/09). All animal experiments were conducted at the Walter Brendel Centre of Experimental Medicine, University of Munich.
Ischemia reperfusion experiments: Pigs (n=5/experimental group) were anesthetized and instrumented as described previously (Hinkel et al., 2008). Briefly, a balloon was placed in the left anterior descending artery (LAD) distal to the bifurcation of the first diagonal branch and inflated for 60 min. Correct localization of the coronary occlusion and patency of the first diagonal branch were ensured by injection fluoroscopy. Regional application of TB4 peptides or saline solution was performed via selective pressure regulated retroinfusion for 10 min into the anterior interventricular vein (AIV) draining the LAD-perfused myocardium (Kupatt et al., 2005).
Global myocardial function: At day 0 before ischemia induction and after 24 h of reperfusion myocardial function was obtained via Millar pressure tip catheter. Therefore the Millar pressure tip catheter was placed in the left ventricle and left ventricular pressure was recorded for off-line analysis.
Regional myocardial function: 24 hours after induction of ischemia, sternotomy was performed and ultrasonic crystals were placed subendocardial into the area at risk, the infracted area as well as into the Cx perfusion area in a standardized manner. Subendocardial segment shortening (SES) was assessed under resting heart rate as well as at 120 and 150 beats/min atrial pacing (for 1 min/each).
Infarct size and local inflammation: For assessment of infarct size methylene blue was injected in the left ventricle for negative staining of the AAR and tetrazolium red was applied into the LAD for viability staining in the infracted area. Thereafter, left ventricle was cut into slices (5 mm thick), and subjected to digital photography. Planimetry of different slices was conducted via ImageJ for assessment of infarct size in % of AAR. Tissue samples from infarct, area at risk and non-ischemic control were harvested for leukocyte recruitment. Myeloperoxidase assays were performed as previously described (Kupatt et al., 2005).

myocardial cells = assay: Beating frequency of myocardial cells in embryonic cardiac explants on collagen gel; assay type: cell-based, mouse; settings: for frequency of myocardial beating: 300 ng peptide or 100 ng TB4, normalized to PBS and TB4 controls (TB4 = 100.00); for myocyte beating, effect in words: compared with full-length TB4 or other constructs
Experimental: (§2) In vitro embryonic cardiac cell migration assay. The outflow tract of the heart was dissected from E11.5 wild-type mouse embryos and placed on rat-tail collagen matrix (Roche) endothelial layer facing down as described (Bock-Marquette et al., 2004; Runyan and Markwald, 1983). After 10 h of attachment, three independent explants were incubated with 300 ng of peptide #1-17, 100 ng of TB4, or 3 μl PBS in […] OPTIMEM medium (Invitrogen/Gibco) respectively. Medium and protein were changed every two days. To monitor migration distance photos were taken daily using Nikon DXM1200F microscope at 4× magnification. Cell migration distance was quantified by ImageJ software (http at rsb.info.nih.gov/ij/) in three separate explants and three measurements for each treatment respectively. Beating frequency of myocardial cells was counted three times at 7-15 days of treatment. Calculations were normalized to PBS and TB4 treated positive and negative controls. After 15 days at 37° C. in 5% CO2, explants were fixed in 4% paraformaldehyde in PBS for 10 min at room temperature. Explants were stored at 4° C. in PBS for further immunocytochemical investigations.

[2] = system: embryonic cardiac endothelial cells; assay: In vitro embryonic cardiac cell migration assay on collagen gel (outflow tract explants); assay type: cell-based, mouse; set-up: unit not given here; settings: 300 ng peptide or 100 ng TB4 in medium; E11.5 outflow tract explants; results normalized to PBS control (TB4 = 100.00)
Experimental: as §2

[3] = Yang et al., 2004, cited from earlier work
mature coronary vessels = assay: Immunohistochemistry, smooth muscle α-actin positive vessels at infarction border zone; assay type: in vivo, mouse; settings: two weeks after treatment, compared to PBS (FIG. 10)
From the text: as §1
Immunohistochemistry. Adult mouse cardiac tissue was fixed in 4% paraformaldehyde and sections were analyzed by immunohistochemistry. Hearts were sectioned at eight levels from the base to the apex. Serial sections were immunostained with primary antibodies against Pecam-1 and Wt-1 (1:50) (Santa Cruz), Smooth muscle a-actin (1:220) (Sigma), Sarcomeric a-actinin (1:200) (Sigma), Connexin43 (1:200) (Invitrogen), pS368-Connexin43 (1:200) (Cell Signaling Technology) as recommended by the manufacturer. Terminal deoxynucleotidyl transferase dUTP nick end labeling (TUNEL) assay was performed using In Situ Cell Detection kit (Roche). Number of sm a-actin positive capillaries and Wt-1 positive cells were counted at the infarction border zone in high power photographs at all levels of the sections in three peptide, TB4 and PBS treated hearts respectively.

[4] = system: Wt-1 positive cardiac progenitors; assay: Immunohistochemistry, Wt-1 positive progenitor cells at infarction border; assay type: in vivo, mouse; settings: infarction border, two weeks after injections (FIG. 11)
From the text: Animals and Surgical procedures. Mice: Myocardial infarctions were produced in seventy C57BL/6J male mice at 16 weeks of age (25-30 g) by ligation of the left anterior descending (LAD) coronary artery as described (Garner et al., 2003). All animal protocols were reviewed and approved by the University of Texas Southwestern Medical School Institutional Animal Care Advisory Committee and were in compliance with the rules governing animal use as published by the NIH. Mice were sedated in an isoflurane chamber (5%) for 60 seconds until self-designed coaxial mask could be safely applied. The mask supplied continuous isoflurane (2.0%) and oxygen (98.0%) under positive pressure from a Harvard small animal respirator throughout the procedures. […] Effective doses of the peptides were calculated based on optimal in vitro cell migration effect and on biodistribution calculations of full length TB4 (Mora et al., 1997). […]
Immunohistochemistry. Adult mouse cardiac tissue was fixed in 4% paraformaldehyde and sections were analyzed by immunohistochemistry. […] Number of sm a-actin positive capillaries and Wt-1 positive cells were counted at the infarction border zone in high power photographs at all levels of the sections in three peptide, TB4 and PBS treated hearts respectively.

Row | Compound | frequency of myocardial beating (myocardial cells) | endothelial cell migration distance [2] | myocyte beating, effect in words (myocardial cells) | further results
1 | C[C@H](N)C(=O)NCC(=O)N[C@@H](CCC(=O)O)C(=O)N[C@@H](CO)C(=O)O [#17, AGES] (H-AGES-OH) | – | – | – | side effects [1]: did not observe any major side effects; side effects (adult infarcted pigs): did not observe any major side effects
2 | #4: de-acetylated form of the N-terminal variable domain (of #1) (SDKP; Thymosin beta-4; UniProt P62328 2-5, looked up, fragment) | 86.88+/−1.15 beats/75 sec | 154 | – | –
3 | #2: acetylated N-terminal variable domain with addition of Met6 (Ac-SDKPDM-OH; UniProt P62328 2-7, looked up, fragment) | 10.65+/−1.15 beats/75 sec | – | inhibit myocyte beating in vitro | –
4 | Ac-SDKP (Ac-SDKP-OH; UniProt P62328 2-5, looked up, fragment) [#1, acetylated N-terminal variable domain of TB4] | 45.08+/−2.31 beats/75 sec | 116 | inhibit myocyte beating in vitro | fibrosis, inflammation and coronary vessel growth / angiogenesis [3]: highly angiogenic; post-ischemic cardiac (global) function [3]: did not affect post-ischemic cardiac function; also recorded: did not aid global function; fibrosis, inflammation and coronary vessel growth / angiogenesis ([3]; listed as Ac-SDKP): positive influence; post-ischemic cardiac (global) function ([3]; listed as Ac-SDKP): does not aid post-ischemic cardiac function
5 | #5: de-acetylated form of the N-terminal variable domain with Met6 (of #2) (SDKPDM; Thymosin beta-4; UniProt P62328 2-7, looked up, fragment) | 66.39+/−3.46 beats/75 sec | 139 | – | –
6 | LKKTET [#8] | 87.02+/−16.17 beats/75 sec | 13 | resembled myocyte fibrillation; also recorded: increases beating frequency | –
7 | LKKTETQEKNPLPSKETIEQEKQAGES [#14] | – | – | – | side effects [1]: did not observe any major side effects; side effects (adult infarcted pigs): did not observe any major side effects
8 | Ac-SDKPDMox [#3] | 17.21+/−1.00 beats/75 sec | 70.7 | – | number of mature coronary vessels (mature coronary vessels): fails to alter the number of mature coronary vessels; number of mature coronary vessels (mature coronary vessels; listed as Ac-SDKPDMox): did not initiate vessel growth; post-ischemic cardiac function, in words [1]: does not alter cardiac function; post-ischemic cardiac function, in words ([1]; listed as Ac-SDKPDMox): failed to aid cardiac function; Wt-1 positive progenitor cells [4]: fails to increase Wt-1 positive progenitor cells
